46 compounds from patent US6495592B1, “Tracheal smooth muscle relaxants” (Nippon Suisan Kaisha, Ltd., priority 1996, dated 2002) can be followed below.

In this assay the test system is tracheal smooth muscle. Put plainly: Dilating action to contraction of tracheal smooth muscle (potassium chloride-induced contraction of isolated trachea segment, Magnus tube). In kind it is cell-based. The settings on record: 30 μM test substance, contraction induced by 72.7 mM potassium chloride, guinea pig (Hartley, male) trachea segment; for inhibition at 30 µM: Cavia porcellus, read-out: Activity (suppressing rate for contraction by potassium chloride). As to the method: Each sample is tested by using two segment obtained from one animal; the trachea was removed from a guinea pig (Hartley, male, seven weeks age) and was made the segment, 6 mm in length. The segment was suspended in a Magnus tube containing a physiological salt solution of 37° C. with a flow of mixed gas consisting of 95% oxygen and 5% carbon dioxide gas. A base-line tension of 1 g was applied to the segment and, after tension of the sample became stable, the solution was exchanged with a solution containing 72.7 mM of potassium chloride to induce a contraction. When tension of the contraction by potassium chloride became stable, a compound of the formula (1) was added as a test substance to measure the change in the tension. The test substance was dissolved in dimethyl sulfoxide and added thereto. Incidentally, at the stage of addition, the final concentration of dimethyl sulfoxide was made not more than 0.3%. Changes in the tension was recorded on a recorder (R-64V, Rika Denki) after introducing to an amplifier for strain pressure (AP-621G, Nippon Koden Kogyo) via an FD pickup transducer (TB-611T, Nippon Koden Kogyo). Tension before addition of potassium chloride was set as 0 while that after addition of potassium chloride was set as 100 and the suppressing rate for contraction by potassium chloride after addition of the test substance was expressed by a relative percentage whereby the activity was determined according to the following criteria.
The Compound No. in the table is the same as that in the Production Examples.

With “2-thiomethyl-7,9-dihydroxy-10,11-dihydrodibenzo[b,f]oxepin-10-one S-oxide [Compound 109]”, the “Activity (suppressing rate for contraction by potassium chloride)” value is recorded as “− (no suppressing action of not less than 50% was achieved at 30 μM)”. For the compound `O=C1Cc2ccccc2Oc2c(O)c(O)cc(O)c21` [Compound 2, 6,7,9-trihydroxy-10,11-dihydrodibenz[b,f]oxepin-10-one], the inhibition at 30 µM was not above 50%. Same read-out and setting: as for `O=C1Cc2ccccc2Oc2c(O)ccc(O)c21` [Compound 7, 6,9-dihydroxy-10,11-dihydrodibenz[b,f]oxepin-10-one], the figure is not below 50%; as for `O=C1Cc2ccccc2Oc2c1ccc(O)c2O` [Compound 8, 6,7-dihydroxy-10,11-dihydrodibenz[b,f]oxepin-10-one], not above 50%.

Turning to `O=C1Cc2ccccc2Oc2cc(O)c(O)c(O)c21` [Compound 9, 7,8,9-trihydroxy-10,11-dihydrodibenz[b,f]oxepin-10-one], the inhibition at 30 µM is not above 50%.

Take `Oc1cc(O)c2c(c1)Oc1ccccc1CC2` [Compound 12, 10,11-dihydrodibenz[b,f]oxepin-1,3-diol]: the inhibition at 30 µM is not below 50%. On to `O=C1Cc2ccccc2Oc2cc(O)c(O)cc21` [Compound 13, 7,8-dihydroxy-10,11-dihydrodibenz[b,f]oxepin-10-one], for which the inhibition at 30 µM is not above 50%. On the same count and under the same terms, as for `Oc1cc2c(cc1O)Oc1ccccc1CC2` [Compound 14, 10,11-dihydrodibenz[b,f]oxepin-2,3-diol], the figure is not above 50%; as for `O=C1Cc2ccc(Cl)cc2Oc2cc(O)cc(O)c21` [Compound 15, 3-chloro-7,9-dihydroxy-10,11-dihydrodibenz[b,f]oxepin-10-one], not below 50%. Consider `Oc1cc(O)c2c(c1)Oc1cc(Cl)ccc1CC2` [Compound 16, 7-chloro-10,11-dihydrodibenz[b,f]oxepin-1,3-diol], for which the inhibition at 30 µM was not above 50%. On to `O=C1Cc2cc(Cl)ccc2Oc2cc(O)cc(O)c21` [Compound 19, 2-chloro-7,9-dihydroxy-10,11-dihydrodibenz[b,f]oxepin-10-one], for which the inhibition at 30 µM is not below 50%.

For the compound `Oc1cc(O)c2c(c1)Oc1ccc(Cl)cc1CC2` [Compound 20, 8-chloro-10,11-dihydrodibenz[b,f]oxepin-1,3-diol], the inhibition at 30 µM is not above 50%. With `O=C1Cc2ccc(F)cc2Oc2cc(O)cc(O)c21` [Compound 23, 3-fluoro-7,9-dihydroxy-10,11-dihydrodibenz[b,f]oxepin-10-one], the inhibition at 30 µM is not below 50%. Consider `Oc1cc(O)c2c(c1)Oc1cc(F)ccc1CC2` [Compound 24, 7-fluoro-10,11-dihydrodibenz[b,f]oxepin-1,3-diol], for which the inhibition at 30 µM was not below 50%. The same measure, in the same setting: the figure for `O=C1Cc2ccc(Cl)c(Cl)c2Oc2cc(O)cc(O)c21` [Compound 27, 3,4-dichloro-7,9-dihydroxy-10,11-dihydrodibenz[b,f]oxepin-10-one] is not below 50%; for `Oc1cc(O)c2c(c1)Oc1c(ccc(Cl)c1Cl)CC2` [Compound 28, 6,7-dichloro-10,11-dihydrodibenz[b,f]oxepin-1,3-diol] it is not above 50%; for `O=C1Cc2cc(F)ccc2Oc2cc(O)cc(O)c21` [Compound 29, 2-fluoro-7,9-dihydroxy-10,11-dihydrodibenz[b,f]oxepin-10-one] it is not below 50%. On to `Oc1cc(O)c2c(c1)Oc1ccc(F)cc1CC2` [Compound 30, 8-fluoro-10,11-dihydrodibenz[b,f]oxepin-1,3-diol], for which the inhibition at 30 µM is not below 50%. On to `O=C1Cc2cc(Cl)cc(Cl)c2Oc2cc(O)cc(O)c21` [Compound 34, 2,4-dichloro-7,9-dihydroxy-10,11-dihydrodibenz[b,f]oxepin-10-one], for which the inhibition at 30 µM is not below 50%. As for `Oc1cc(O)c2c(c1)Oc1c(Cl)cc(Cl)cc1CC2` [Compound 35, 6,8-dichloro-10,11-dihydrodibenz[b,f]oxepin-1,3-diol], the inhibition at 30 µM is not above 50%.

Turning to `O=C1Cc2cccc(Cl)c2Oc2cc(O)cc(O)c21` [Compound 36, 4-chloro-7,9-dihydroxy-10,11-dihydrodibenz[b,f]oxepin-10-one], the inhibition at 30 µM is not below 50%. Same read-out and setting: as for `Oc1cc(O)c2c(c1)Oc1c(Cl)cccc1CC2` [Compound 37, 6-chloro-10,11-dihydrodibenz[b,f]oxepin-1,3-diol], the figure is not below 50%. Consider `O=C1Cc2cc(C(F)(F)F)ccc2Oc2cc(O)cc(O)c21` [Compound 38, 7,9-dihydroxy-2-trifluoromethyl-10,11-dihydrodibenz[b,f]oxepin-10-one], for which the inhibition at 30 µM was not below 50%. Take `Oc1cc(O)c2c(c1)Oc1ccc(C(F)(F)F)cc1CC2` [Compound 39, 8-trifluoromethyl-10,11-dihydrodibenz[b,f]oxepin-1,3-diol]: the inhibition at 30 µM is not below 50%. As to `O=C1Cc2cc(O)c(O)cc2Oc2cc(O)cc(O)c21` [Compound 40, 2,3,7,9-tetrahydroxy-10,11-dihydrodibenz[b,f]oxepin-10-one], the inhibition at 30 µM is not above 50%. For `Oc1cc2c(cc1O)Sc1ccccc1CC2` [Compound 44, 10,11-dihydrodibenz[b,f]thiepin-2,3-diol], the inhibition at 30 µM was not below 50%.

`CC(=O)c1c(O)cc(O)c2c1Oc1ccccc1CC2` [Compound 47, 4-acetyl-10,11-dihydrodibenz[b,f]oxepin-1,3-diol]: the inhibition at 30 µM was not below 50%. As to `O=C1Cc2c(F)cccc2Oc2cc(O)cc(O)c21` [Compound 49, 1-fluoro-7,9-dihydroxy-10,11-dihydrodibenz[b,f]oxepin-10-one], the inhibition at 30 µM was not below 50%.

For `O=C1Cc2c(F)cccc2Oc2cc(F)c(F)cc21` [Compound 63, 1,7,8-trifluoro-10,11-dihydrodibenz[b,f]oxepin-10-one], the inhibition at 30 µM was not below 50%. Consider `O=C1Cc2cc([N+](=O)[O-])ccc2Oc2cc(O)cc(O)c21` [Compound 70, 2-nitro-7,9-dihydroxy-10,11-dihydrodibenz[b,f]oxepin-10-one], for which the inhibition at 30 µM is not below 50%. Regarding `Nc1ccc2c(c1)CC(=O)c1c(O)cc(O)cc1O2` [Compound 71, 2-amino-7,9-dihydroxy-10,11-dihydrodibenz[b,f]oxepin-10-one], the inhibition at 30 µM was not below 50%. In the case of `Nc1ccc2c(c1)CCc1c(O)cc(O)cc1O2` [Compound 77, 8-amino-10,11-dihydrodibenz[b,f]oxepin-1,3-diol], the inhibition at 30 µM is not above 50%. Same read-out and setting: as for `Oc1cc(O)c2c(c1)Sc1ccccc1CC2` [Compound 81, 10,11-dihydrodibenzo[b,f]thiepin-1,3-diol], the figure is not below 50%; as for `CC(=O)c1c(O)c2c(c(C(C)=O)c1O)Sc1ccccc1CC2` [Compound 84, 2,4-diacetyl-10,11-dihydrodibenzo[b,f]thiepin-1,3-diol], not below 50%. On the same count and under the same terms, as for `CC(=O)c1c(O)cc(O)c2c1Sc1ccccc1CC2` [Compound 85, 4-acetyl-10,11-dihydrodibenzo[b,f]thiepin-1,3-diol], the figure is not below 50%.

Consider `CC(=O)c1ccc2c(c1)CCc1c(O)cc(O)cc1S2` [Compound 86, 8-acetyl-10,11-dihydrodibenzo[b,f]thiepin-1,3-diol], for which the inhibition at 30 µM was not below 50%. As for `CCC(=O)c1c(O)c2c(c(C(=O)CC)c1O)Sc1ccccc1CC2` [Compound 89, 2,4-dipropionyl-10,11-dihydrodibenzo[b,f]thiepin-1,3-diol], the inhibition at 30 µM is not below 50%. Same read-out and setting: as for `CCC(=O)c1c(O)cc(O)c2c1Sc1ccccc1CC2` [Compound 90, 4-propionyl-10,11-dihydrodibenzo[b,f]thiepin-1,3-diol], the figure is not below 50%. With `CCC(=O)c1ccc2c(c1)CCc1c(O)cc(O)cc1S2` [Compound 91, 8-propionyl-10,11-dihydrodibenzo[b,f]thiepin-1,3-diol], the inhibition at 30 µM was not below 50%.

`CC(=O)c1ccc2c(c1)C=Cc1cc(O)c(O)cc1S2` [Compound 92, 8-acetyldibenzo[b,f]thiepin-2,3-diol]: the inhibition at 30 µM is not below 50%.

As for `CC(=O)Nc1ccc2c(c1)CC(=O)c1c(O)cc(O)cc1O2` [Compound 94, N-acetyl-2-amino-7,9-dihydroxy-10,11-dihydrodibenzo[b,f]oxepin-10-one], the inhibition at 30 µM was not below 50%. With `CC(=O)c1ccc2c(c1)CCc1c(O)cc(O)cc1O2` [Compound 95, 8-acetyl-10,11-dihydrodibenzo[b,f]oxepin-1,3-diol], the inhibition at 30 µM is not below 50%.

`CC(O)c1ccc2c(c1)CCc1c(O)cc(O)cc1O2` (stereo not shown) [Compound 96, 8-(1-hydroxyethyl)-10,11-dihydrodibenzo[b,f]oxepin-1,3-diol]: the inhibition at 30 µM was not below 50%. With `O=C(O)Cc1ccc2c(c1)CCc1c(O)cc(O)cc1O2` [Compound 97, 7,9-dihydroxy-10,11-dihydrodibenzo[b,f]oxepin-2-acetic acid], the inhibition at 30 µM was not above 50%.

As to `Cc1ccc2c(c1)CC(=O)c1cc(O)c(O)cc1S2` [Compound 104, 7,8-dihydroxy-2-methyl-10,11-dihydrodibenzo[b,f]thiepin-10-one], the inhibition at 30 µM was not below 50%. Turning to `CC(C)c1ccc2c(c1)CC(=O)c1cc(O)c(O)cc1S2` [Compound 106, 7,8-dihydroxy-2-(2-propyl)-10,11-dihydrodibenzo[b,f]thiepin-10-one], the inhibition at 30 µM was not below 50%.
